# Experimental data taken from PMC10973839, “CHF6297: a novel potent and selective p38 MAPK inhibitor with robust anti-inflammatory activity and suitable for inhaled pulmonary administration as dry powder” (Frontiers in Pharmacology, 2024).
# Experiments:
# [1] = tested on: LPS-induced neutrophil influx in BALF; assay: LPS-induced BALF neutrophilia in rats
# Description: For intratracheal (i.t.) administration of LPS or IL-1β, animals were anesthetized with sevoflurane (4% in oxygen), and a laryngoscope was moved forward into the mouth to visualize the trachea and guide the insertion of a fine-tipped PE 100 tube (air-jet delivery system) directly into the trachea and located 1–2 mm above the carina bifurcation. LPS or IL-1β at a concentration of 5 μg/kg and 0.3 μg/kg, respectively, was prepared as a saline solution in a 0.5 mL/kg volume and was blown into the airways during the spontaneous inspiration phase in an air volume of 2 mL.
# Each dose group was allocated to a separate system, and each system was housed in an individual ventilated hood.
# Powder generation: Compound and vehicle blends were compressed into canisters by using a hydraulic press at 50 bar to prepare a stable “tablet” and ensure a uniform pack density. The Wright Dust Feeder (WDF) comprised an electric motor, gears, a scraper blade, air entry, and a final jet and baffle array. The scraper blade scraped off a fine layer of powder, driven by the motor, and the output speed was determined by the configuration of the gears. The scraped powder was then blown out of the dust feed at its base through a jet which focused the powder stream at a baffle, thus reducing aggregation and producing a fine particulate. The WDF was attached to an aerosol conditioning pre-chamber for the delivery of the powder to the inhalation tower. The generation of the powder was monitored throughout the exposure periods either visually or electronically with a dust monitor.
# Inhalation tower: The nose-only inhalation tower was a modular apparatus of anodized aluminum comprising a base unit, two animal sections, and a top section, connected to an earth lead to prevent the formation of any static build-up. During the exposures, the rats were held in restraining tubes, with their snouts protruding into the exposure chamber (see Supplementary Material, Figure 1). The rate of airflow through the WDF was 19 L/min, and that of the exhaust airflow was 20 L/min (vehicle, 0.1 and 1 mg/kg doses) or 40 L/min (0.03 mg/kg doses). The air supply and extract were monitored using in-line flowmeters and recorded manually.
# The inhaled dose was derived using the following equation ([Alexander et al., 2008]): delivered dose (μg/kg) = (Conc. × RMV × D)/BW, where Conc. = concentration of CHF-6297 in the air inhaled (µg/L); RMV = volume of air inhaled in 1 min (L/min) 0.608 × BW (kg) 0.852; D = duration of exposure to the aerosol (min); and BW = body weight (kg).
# Animals were dosed either 1 h (dose–response curve) or 24 h (duration of action) before LPS challenge. Four hours after endotoxin challenge or saline injection, bronchoalveolar lavage fluid (BALF) was collected for cell counting.
# Animals were anesthetized with sevoflurane (4% in oxygen) and euthanized by bleeding from the abdominal aorta. BALF was obtained by gently washing the lungs with three aliquots (4 mL each) of 100 mL of solution A [Hank’s balanced salt solution (HBSS) × 10; 100 mL of 100 mM EDTA; 10 mL of 1 mM HEPES; and 790 mL of distilled water]. […] The resulting BALF was centrifuged at 800 × g for 10 min at 4°C. […] The cell count per animal was calculated from the number of cells for 1 µL of BALF multiplied by the volume used for the resuspension of the cell pellet.
# [2] = tested on: TS-induced neutrophil influx in BALF; assay: BALF neutrophilia induced by tobacco smoke exposure in mice; format: in vivo, C57BL6J female mice; conditions: for neutrophils in BALF: 4 days TS exposure
# Description: C57BL6J female mice aged 9–10 weeks (Harlan Laboratories S.r.l) in groups of 8 were exposed, via whole-body inhalation, twice daily 1 h apart, for 4 consecutive days, to the tobacco smoke (TS) (generated using “Marlboro Gold: 9 mg of tar and 0.7 mg nicotine”) of two cigarettes/exposure on days 1 and 2, three cigarettes/exposure on day 3, and four cigarettes/exposure on the last exposure day in clear polycarbonate chambers (27 cm × 16 cm × 12 cm). The smoke was introduced into the exposure chambers (21100-790 Ugo Basile, Biological Research Instruments, Comerio, Varese, Italy), with the airflow generated by using a mechanical ventilator (7025 Rodent Ventilator, Ugo Basile). Each exposure chamber was connected to a different ventilator set at a rate of 100 mL/min (frequency: 50 strokes/min; volume: 2 mL/stroke). At regular intervals (after burning two cigarettes), the exposure chambers were opened and aired. Sham and control mice were exposed to air only in the same manner for the same duration of time.
# CHF6297 (0.03 and 0.3 mg/kg) and budesonide (0.3 mg/kg), our reference compound and vehicle (0.2% Tween 80 in saline), respectively, were administered intranasally in a volume of 30 µL, 1 h before and 5 h after TS exposure under light isoflurane anesthesia.
# A BAL was performed using a volume of 0.6 mL of phosphate-buffered saline that was gently instilled and withdrawn three times using a 12-mL syringe. BALF cells were separated by centrifugation (10 min at 3,070 g), and the supernatant was removed. The resulting cell pellet was resuspended in a known volume of PBS, and the total cell numbers were calculated by counting a stained (Turk’s stain) aliquot under a microscope using a hemacytometer. The cell pellet was resuspended to approximately 10^5 cells per ml, and cytospin slides were prepared by centrifugation (8 min at 72.26 g; Shandon Cytospin; Thermo Shandon Ltd., Runcorn, Cheshire, United Kingdom). The slides were air-dried and stained using Wright–Giemsa stain, following the manufacturer’s instructions. A differential cell count was performed using light microscopy. Approximately 400 cells were counted from each slide. The cells were identified using standard morphometric techniques.
# rat p38α = rat p38α (Rattus norvegicus, UniProt P70618); assay: AlphaScreen kinase activity assay, rat p38α; format: biochemical
# human p38β = molecular target: T1, human p38β (Homo sapiens, UniProt Q15759); assay: KINOMEscan competition binding assay (DiscoverX), p38β; conditions: read-out: Kd (mean ± s.d.)
# T1 construct: purchased DiscoverX
# Text: (§1) The KINOMEscan® platform (DiscoverX) was used, which uses a novel and proprietary active site-directed competition binding assay to quantitatively measure the interactions between human p38 isoforms and the target compound.
# human p38α = molecular target: T2, human p38α (Homo sapiens, UniProt Q16539); assay: KINOMEscan competition binding assay (DiscoverX), p38α; conditions: read-out: Kd (mean ± s.d.)
# T2 construct: purchased DiscoverX
# Text: as §1
# human p38β (MAPK11) = molecular target: T3, human p38β (MAPK11) (Homo sapiens, UniProt Q15759); assay: AlphaScreen kinase activity assay, human p38β; format: biochemical
# T3 construct: GST; purchased Invitrogen
# Description: The inhibitory activity of CHF6297 was determined using an AlphaScreen® (PerkinElmer)-based kinase activity assay as previously described ([Armani et al., 2022]). Kinase reactions consisted of 25 mM 4-(2-hydroxyethyl)-1-piperazine ethanesulfonic acid (HEPES), pH 7.5; 10 mM MgCl2; 100 μM Na3VO4; 2 mM DTT; 0.05 mg/mL Tween^TM 20; 100 pM solution of p38α, p38β, p38δ, or p38γ (Invitrogen); 1% DMSO; and 0.3 μg/mL ATF-2 fusion protein (New England Biolabs). Compounds were incubated under these conditions for 2 h, at 25°C, prior to the initiation of kinase activity by the addition of 250 μM ATP. […] Detection was performed by measuring luminescence following the addition of AlphaScreen donor beads (PerkinElmer, 6765300) and Protein A AlphaScreen acceptor beads (PerkinElmer, 6760137), both at a final concentration of 20 μg/mL. IC50 values were determined from concentration–response curves. […]
# CHF6297 was tested in biochemical enzymatic assays to determine its potency as an inhibitor of human p38α (MAPK14) and of the other human p38 isoforms, p38β (MAPK11), p38γ ([…]), and p38δ ([…]) ([Armani et al., 2022]). Activity in the primary screening assay was determined using AlphaScreen technology, in which a peptide (ATF2) is phosphorylated by the appropriate GST-tagged p38 protein isoform in the presence of CHF6297 at concentrations from semi-logarithmic dilutions. […]
# HBSMCs = assay: CSE-evoked IL-8 release in human bronchial smooth muscle cells; format: cell-based
# Description: Cigarette smoke extract (CSE) was generated as reported previously ([Moretto et al., 2012]). Briefly, aqueous CSE was obtained from the combustion of four cigarettes (Marlboro Red, 12 mg tar, 0.9 mg nicotine each) bubbled through 50 mL of the culture medium and subsequently filtered through a 0.2-μm-pore filter (Millipore, Billerica, MA). To ensure reproducibility among different CSE batches, the absorbance [optical density (OD)] measured at 320 nm was used as a measure of the “strength” of the extract. Dilutions were made with culture media to obtain the desired absorbance. The CSE was freshly prepared on the day of the experiment and immediately used after preparation. Human bronchial smooth muscle cells (HBSMCs) were seeded in DMEM with 10% FBS (50 U/mL penicillin, 0.05 mg/mL streptomycin, and 2 mM L-glutamine) in 48-well plates at a density of 10,000 cells/well, grown to ∼80%–90% confluence and incubated overnight in serum-free DMEM before treatments. All the treatments were performed in serum-free DMEM. The cells were pretreated for 30 min with either the vehicle or CHF6297 or losmapimod before stimulation with freshly prepared CSE, TNF-α, (1 ng/mL), or the vehicle for 18 h at 37°C. Human IL-8 was measured in the collected supernatants by use of a paired-antibody quantitative ELISA kit (BioSource International, Camarillo, CA).
# [3] = n = 3, read-out: IC50 (mean ± s.d.)
# T3 sequence (Q15759 whole entry): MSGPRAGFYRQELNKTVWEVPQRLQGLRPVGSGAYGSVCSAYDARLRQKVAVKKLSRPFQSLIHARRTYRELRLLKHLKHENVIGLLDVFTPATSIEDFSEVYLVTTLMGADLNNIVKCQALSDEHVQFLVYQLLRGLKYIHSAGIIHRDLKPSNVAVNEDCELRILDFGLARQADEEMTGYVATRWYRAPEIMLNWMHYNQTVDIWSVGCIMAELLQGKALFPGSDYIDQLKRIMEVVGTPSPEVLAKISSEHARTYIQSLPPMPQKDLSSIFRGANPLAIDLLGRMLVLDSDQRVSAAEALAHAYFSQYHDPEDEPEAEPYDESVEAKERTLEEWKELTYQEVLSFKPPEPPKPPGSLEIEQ
# Chain of rat p38α (P70618 whole entry): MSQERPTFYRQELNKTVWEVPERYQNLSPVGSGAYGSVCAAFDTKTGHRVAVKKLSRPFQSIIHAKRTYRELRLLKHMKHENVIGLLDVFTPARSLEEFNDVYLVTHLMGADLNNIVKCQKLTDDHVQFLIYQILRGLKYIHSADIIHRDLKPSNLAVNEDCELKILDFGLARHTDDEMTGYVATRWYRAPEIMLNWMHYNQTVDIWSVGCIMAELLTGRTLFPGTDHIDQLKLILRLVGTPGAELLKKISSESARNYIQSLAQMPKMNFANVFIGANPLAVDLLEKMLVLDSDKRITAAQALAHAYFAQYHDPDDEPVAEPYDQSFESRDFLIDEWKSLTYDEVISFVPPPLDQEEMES
# T2 sequence (Q16539 whole entry): as the sequence (P70618 whole entry) above, with V17I, H48L, A263T, E321D, F332L counted along it
# T1 sequence (Q15759 whole entry): as the sequence (Q15759 whole entry) above
structure (smiles),measurement,setting,value
C[C@H]1CCCCN1c1nnc2ccc(O[C@@H]3CC[C@H](NC(=O)Nc4cc(C(C)(C)C)nn4-c4cnn(CCN(C)C)c4)c4ccccc43)cn12 [CHF6297],neutrophils in BALF,"[1]; 0.1 mg/kg nose-only dry powder, 1 h before LPS, BALF 4 h after challenge",1.18 × 10^6 ± 0.27 × 10^6 neutrophils
same,neutrophils in BALF,"[1]; 0.1 mg/kg nose-only dry powder, 24 h before LPS",1.9 × 10^6 ± 0.3 × 10^6 neutrophils
same,neutrophils in BALF,"[1]; 1 mg/kg nose-only dry powder, 1 h before LPS, BALF 4 h after challenge",0.7 × 10^6 ± 0.12 × 10^6 neutrophils
same,neutrophils in BALF,"[1]; 1 mg/kg nose-only dry powder, 24 h before LPS",1.45 × 10^6 ± 0.19 × 10^6 neutrophils
same,ED50,"[1]; Rattus norvegicus, Neutrophil, read-out: ED50, inhibition of pulmonary neutrophilia",0.064 mg/kg
same,% of inhibition of neutrophil recruitment,"[2]; 0.03 mg/kg i.n., 1 h before and 5 h after TS",29.7 ± 15.3%
same,neutrophils in BALF,[2]; 0.03 mg/kg i.n.,0.4 ± 0.1 × 10^5 cells/mL
same,% inhibition of neutrophilia,"[2]; 0.3 mg/kg i.n., 1 h before and 5 h after TS",62.0 ± 8.4%
same,neutrophils in BALF,[2]; 0.3 mg/kg i.n.,0.2 ± 0.1 × 10^5 cells/mL
same,IC50 fold-difference vs. human p38α,rat p38α,3.5
same,IC50,rat p38α; [3],500 ± 180 pM
same,Kd,human p38β,1110 ± 600 pM
same,Kd,human p38α,240 ± 60 pM
same,IC50 fold-difference vs. human p38α,human p38β (MAPK11),1.4
same,IC50,human p38β (MAPK11); [3],200 ± 17 pM
same,maximum inhibition of IL-8,HBSMCs; CSE-evoked,100%
same,IC50,"HBSMCs; Homo sapiens, 18 h",790 pM
